The values that follow come from PubChem BioAssay (NCI).

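A five-concentration, 48-hour dose response in 96-well plates underlies each endpoint, interpolated linearly between surrounding concentrations. GI50: concentration for 50% inhibition of growth. At the TGI there is no net growth.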 Bounds are passed on as bounds.

What all share (assay): NCI tumour cell line growth inhibition, 48 h
Assay [1] relates to MOLT-4 leukemia.
Assay [2] deals with SNB-19 CNS.
The test system of assay [3] is 786-0 renal.
Assay [4] relates to RPMI-8226 leukemia.
For assay [5], the system named is M14 melanoma.
For assay [6], the system named is CAKI-1 renal.
The subject of assay [7] is SN12C renal.
Assay [8] deals with NCI-H23 lung.
Assay [9] relates to HOP-92 NSCLC.
Assay [10] has as its system NCI-H522 lung.

For the molecule `Cc1cc(-c2ccco2)cc(C)c1/C=C/c1cncc(-c2nn[nH]n2)c1`, the GI50 in assay [1], in [2], in [3], in assay [4], in [5] and in assay [6] was above 25 µM each time. Also, the GI50 in assay [7], in assay [8], in assay [9] and in assay [10] was above 25 µM throughout. Besides, the TGI in assay [1], in assay [2], in assay [3], in assay [4], in assay [5] and in assay [6] was above 25 µM in each case. Besides, the TGI in assay [7], in [8], in assay [9] and in assay [10] was above 25 µM in each case.
In the case of `Cc1cn2c(/C=C3/C(=O)Nc4ccc(C(=O)O)cc43)c(C)nc2s1`, the GI50 in assay [1], in assay [2], in [3], in [4], in assay [5] and in assay [6] was above 100 µM each time. Besides, the GI50 in assay [7], in [8], in [9] and in [10] was above 100 µM throughout. Besides, the TGI in assay [1], in [2], in assay [3], in assay [4], in assay [5] and in assay [6] was above 100 µM each time. The TGI in assay [7], in assay [8], in assay [9] and in [10] was above 100 µM in each case.
As for `O=S(=O)(NCCCNc1nccc(-c2c(-c3cccc(F)c3)nc3occn23)n1)c1cccc2ccccc12`, the GI50 was 3.54 µM in assay [1]; 9.41 µM in assay [2]; 4.94 µM in [3]; 4.86 µM in assay [4]; 5.75 µM in assay [5]; 3.57 µM in assay [6]. For the same molecule, the GI50 in [7] was 3.44 µM; in [8] it was 14.8 µM; in [9], above 100 µM; in assay [10], 9.17 µM. Besides, the TGI in [1], in assay [2], in [3], in assay [4], in [5] and in assay [6] was above 100 µM each time. For the same molecule, the TGI in assay [7], in assay [8], in assay [9] and in assay [10] was above 100 µM each time.
On to `Cc1cc2c(cc1C)[n+](=O)c(C(=O)/C=C/c1ccccc1[N+](=O)[O-])c(C)n2[O-]`, for which the TGI was above 100 µM in [1]; 42.3 µM in assay [2]; 68.4 µM in [3]; above 100 µM in assay [4]; above 100 µM in [5]; above 97.7 µM in assay [6]. Further, the TGI in assay [7] was above 100 µM; in [8], 63 µM; in assay [9], 67.4 µM; in assay [10], 57.6 µM.
Turning to `COC(=O)C1=Nc2ccc(F)cc2/C1=C/c1sc(=S)[nH]c1O`, the GI50 in [1] was 0.236 µM; in [2], 0.179 µM; in [3], 0.122 µM; in [4] it was 0.305 µM; in assay [5] it was 0.0543 µM; in assay [6] it was 0.097 µM. The GI50 in assay [7] was 0.354 µM; in assay [8], 0.408 µM; in [9], 1.19 µM; in [10] it was 0.0363 µM. Besides, the TGI in assay [1] was above 100 µM; in [2] it was above 52.9 µM; in [3] it was 15.1 µM; in assay [4], 3.92 µM; in assay [5] it was above 100 µM; in [6] it was 7 µM. Also, the TGI was above 26.3 µM in assay [7], above 100 µM in assay [8], 14.4 µM in assay [9] and 1.09 µM in assay [10].
For `Cc1ccc(NC(=O)c2ccc(NC3=C(Cl)C(=O)N(Cc4ccccc4)C3=O)cc2)cc1Cl`, the GI50 in assay [1] was 2.35 µM; in assay [2], 60.5 µM; in [3], 3.35 µM; in assay [4], 3.58 µM; in assay [5] it was 17.6 µM; in assay [6], 1.68 µM. For the same molecule, the GI50 in [7] is 3.87 µM; in assay [8], 11.3 µM; in assay [9], 1.65 µM; in [10], 3.73 µM. Moreover, the TGI was 15.1 µM in [1]; above 100 µM in assay [2]; 15.9 µM in [3]; 16.5 µM in assay [4]; 55.1 µM in assay [5]; 3.81 µM in assay [6]. Further, the TGI was determined as 20.5 µM in assay [7], 29.8 µM in [8], 11.6 µM in [9] and 20.5 µM in [10].
